Results from patent publication US4166113A, “Cardiotonic agent” (University of Hawaii, priority 1978, dated 1979).

Experiments:
[1] = Solubility in deionized water; format: physicochemical
Isoelectric focusing = format: physicochemical
From the text: For the purpose of obtaining electrophoretic and amino acid analysis the anthopleurin-B obtained in Example 1, below, was rechromatographed on CM Sephadex C-25, Sephadex G-50 and G-10 according to the process set forth in Example 1, Steps c, d and e, respectively. The doubly purified material was subject to electrophoretic analysis using commercially available pre-cast 12% acrylamide gels and matched buffer systems obtained from Bio.Rad Laboratories, 32nd and Griffin, Richmond, California.
Isoelectric focusing gave the isoelectric point at a pH=9.05. Disc gel electrophoresis with 12% polyacrylamide gel at pH 3.6 gave an Rf value of 0.64 versus methyl green tracking dye. […] Sodium dodecyl sulfate (SDS) disc gel electrophoresis using a 10% gel indicated a m.w. of about 5,200 after incubation with dithioerythritol, using RNase A and pancreatic trypsin inhibitor (PTI) for comparison. The molecular weight is so low that these values are only approximate. […] Acid hydrolysis indicated the approximate following amino acid composition: (Asp or Asn)5, Thr1 Ser4, (Glu or Gln)1, Pro5, Gly7, Ala2, (Cys/2)6 Val1, Ile2, Leu2, Tyr1, Phe1, Lys3, His2, Arg2, Trp2.

isolated rat atria = assay: Bioassay for positive inotropic effect on isolated rat atria; format: cell-based
From the text: The sea anemones are homogenized and extracted with water or with a solution of water and a water miscible organic solvent. The crude extract, containing anthopleurin-B, is subjected to gel filtration to give a forty-fold increase in purity of anthopleurin-B. Alternatively, semipermeable membranes may be used to accomplish the results obtained by gel filtration. Cation exchange chromatography provides an excellent separation of anthopleurin-B in a purity of about 30-40% depending on the particular collection of anemones. […] To obtain analytically pure salt-free material the above material is further purified by gel filtration, cation-exchange chromatography and gel adsorption chromatography. All the separation procedures in the present invention are monitored by bioassay using the isolated rat atria for determination of positive inotropic effect using the procedure described in the section headed Bioassay.
Bioassays of the solutions containing anthopleurin-B are performed on isolated atria of rat hearts. […]
The spontaneously beating atrial preparation is connected by a thin silk thread to a force-displacement transducer (Grass Model FT.03), and the contractile movements are recorded on a six-channel polygraph Grass Model 7. […]

Stability (pH, storage) = format: physicochemical

anthopleurin-B [AP-B]
solubility [1]: very soluble
isoelectric point (Isoelectric focusing): 9.05 pH
potency in positive inotropic effect relative to ouabain (isolated rat atria; as potent as ouabain): 200-1000 x
chronotropic effect (isolated rat atria; isolated rat atria, beat rate): does not show any chronotropic effect
storage stability (Stability (pH, storage); -20° C. for a year, as lyophilized fraction C or fraction G): no signs of deterioration
stability versus pH (Stability (pH, storage); neutral and lower pH values): relatively stable
stability of dry form (Stability (pH, storage); sterile powdered lyophilized, room temperature): stable at room temperature
